Data as given in US12459910B2, “Mitochondrial therapeutic agents” (ARIZONA BOARD OF REGENTS ON BEHALF OF ARIZONA STATE …, priority 2021, dated 2025).

Experiments:
FRDA lymphocytes = assay: RSL3 challenge lipid peroxidation assay (C11-BODIPY581/591, FACS); format: cell-based; conditions: Homo sapiens; FRDA lymphocytes (GM15850); compounds overnight, then 2 μM RSL3; C11-BODIPY581/591 flow cytometry; read-out: RSL3 challenge lipid peroxidation inhibition EC50
Excerpt: (§1) All compounds evaluated for their biological effects were >95% pure. Chemicals employed for the bioassays, including ferrostatin-1 (Fer-1), liproxstatin-1 (Lip-1), RSL3 ((1S,3R)-RSL3), erastin, α-tocopherol, carbonyl cyanide 4-(trifluoromethoxy) phenylhydrazone (FCCP) and galactose, were purchased from Sigma Aldrich. Fluorescent probes, including C11-BODIPY581/591(4,4-difluoro-5-(4-phenyl-1,3-butadienyl)-4-bora-3a,4a-diaza-s-indacene-3-propionic acid), and The Live/Dead® Viability/Cytotoxicity Kit were obtained from Invitrogen (Thermo Fisher Scientific). Luciferase-linked ATPase enzymatic assay (ViaLight Plus proliferation/cytoxicity kit was purchased from Lonza (Walkersville, MD). FRDA lymphocytes (catalogue number GM15850) and FRDA fibroblasts cells (catalogue number GM04078) were obtained from Coriell Cell Repositories (Camden, NJ, USA).
(§2) Lymphocytes were cultured in RPMI-1640 medium (Gibco, Life Technologies, Grand Island, NY) with 15% fetal calf serum, 2 mM glutamine (HyClone, South Logan, UT) and 1% penicillin-streptomycin antibiotic supplement (Cellgro, Manassas, VA). Cells were passaged daily to maintain them in log phase growth and kept at a nominal concentration of 5-10×105 mL. FRDA fibroblasts were cultured in 64% (v/v) Eagle's minimal essential medium (MEM), lacking phenol red with Eagle's balanced salt (EBS) and 25% M199 with EBS (Gibco) supplemented with 10% (v/v) fetal bovine serum albumin (HyClone), 1% penicillin-streptomycin antibiotic mix, 10 μg/mL insulin (Gibco), 10 ng/mL […] (EGF), 10 ng/mL basic fibroblast growth factor (Gibco) and 2 mM glutamine. Cells were grown in 75 cm2 culture flasks and incubated at 37° C. in a humidified atmosphere of 5% CO2 in air. Cells were fed twice weekly and split every third day at a ratio of 1:3. All experiments were conducted with FRDA cells from passages 8-14.
Lipid peroxidation in live cells can be visualized using the oxidation-sensitive fluorescent probe C11-BODIPY581/591. Upon oxidation of this probe, the fluorescence properties shift from a red-emitting form (595 nm) to a green emitting form (520 nm). Changes in fluorescence indirectly reflect the oxidation of unsaturated fatty acids. A quantitative analysis of lipid peroxidation in FRDA lymphocytes, challenged with 2 μM RSL3 in the presence or absence of the test compounds for 2 h was obtained by FACS analysis using the specific dye C11-BODIPY581/591. Briefly, FRDA lymphocytes (5×10^5 cell/mL) were treated with the test compounds (dissolved in DMSO and added to the assay medium at final DMSO concentrations <0.5%) at varying concentrations and incubated at 37° C. overnight in a humidified atmosphere containing 5% CO2 in air. Cells were treated with 2 μM of RSL3 and then incubated for 90 minutes in a humidified atmosphere containing 5% CO2 in air at 37° C. Cells were treated with 2 μM of C11-BODIPY581/591 in phenol red-free RPMI-1640 media and incubated at 37° C. in the dark for 30 min. […] Cells were resuspended in 300 μL of PBS and were analyzed immediately by flow cytometry (C6 Accuri, BD Biosciences, San Jose, CA), to monitor the change in intensity of the C11-BODIPY581/591-green (oxidized) fluorescence signal using 488 nm excitation laser and FL1-H channel 538 nm emission filter. In each analysis, 10,000 events were recorded. […] Final data output was a calculated EC50 value determined graphically from the dose-response curves using the nonlinear regression curve fit analysis model.

FRDA fibroblasts = assay: Erastin cell survival assay (cellular ATP, ViaLight Plus); format: cell-based; conditions: FRDA fibroblasts (GM04078); compounds 12 h before 4 μM erastin; viability by ATP 48 h after erastin; read-out: Erastin challenge cell survival EC50
Excerpt: as §1, §2
The ability of the test compounds to confer cytoprotection to ferroptosis inducer erastin in FRDA fibroblasts was determined by assessing the depletion of cellular ATP using a commercially available luciferase-linked ATPase enzymatic assay (ViaLight® Plus proliferation/cytotoxicity Kit (Lonza, Walkersville, MD) according to the directions of the manufacturer. Briefly, FRDA fibroblasts (GM04078) were plated in 96-well microtiter plates at a density of 3000 cell/well (50 μL) (Costar, Corning, NY). The plates were incubated at 37° C. for 24 h in an atmosphere having 95% humidity and 5% CO2 to allow attachment of the cells to the culture plates and to allow the cell density reach 60-70% confluency. The next day the test compounds were dissolved in DMSO, diluted to the appropriate concentrations in fresh cell culture media and the cells were then treated with the test compounds (final DMSO concentration was <0.5%). […] Cell viability in each well was determined 48 h after erastin addition by measuring the intracellular ATP content using the ViaLight®-Plus ATP monitoring reagent kit (Lonza, Walkersville, MD) according to the manufacturer's protocol. The ATP concentration was determined by reading luminescence using a luminator (Clarity™ luminescence microplate reader). The percent of viable cells relative to non-treated control was determined for each well. […] Final data output was a calculated EC50 value determined graphically from the dose-response curves using the nonlinear regression curve fit analysis model.

| SMILES | EC50 (FRDA lymphocytes) [nM] | EC50 (FRDA fibroblasts) [nM] |
| --- | --- | --- |
| CCCCCCCCCCc1cc2nc3ccc(=O)cc-3sc2cc1N(C)C [Example 1, 8-Decyl-7-(dimethylamino)-3H-phenothiazin-3-One] | 9 ± 1 | 10 ± 1 |
| CCCCCCCCc1cc2nc3ccc(=O)cc-3sc2cc1N(C)C [Example 2, 7-(Dimethylamino)-8-octyl-3H-phenothiazin-3-one] | 14 ± 1 | 15 ± 3 |
| CCCCCCCCCc1cc2nc3ccc(=O)cc-3sc2cc1N(C)C [Example 3, 7-(Dimethylamino)-8-nonyl-3H-phenothiazin-3-one] | 12 ± 1 | 11 ± 1 |
| CCCCCCCCCCCCc1cc2nc3ccc(=O)cc-3sc2cc1N(C)C [Example 4, 7-(Dimethylamino)-8-dodecyl-3H-phenothiazin-3-one] | 16 ± 1 | 15 ± 1 |
| CCCCCCCCCCCCCCCCc1cc2nc3ccc(=O)cc-3sc2cc1N(C)C [Example 5, 7-(Dimethylamino)-8-hexadecyl-3H-phenothiazin-3-one] | 25 ± 3 | 22 ± 2 |
